Assays:
H460 cells [1] = assay: Cell invasion (Matrigel Transwell); assay type: cell-based, human; conditions: 100 nmol/L, 48 h
Description: Matrigel (basement membrane matrix) was thawed on crushed ice one night before and diluted with serum-free medium to a final concentration of 200-300 ug/mL. 100 uL of the diluted Matrigel was added to each upper chamber, let stand at 37° C. for 30 min, and the supernatant was aspirated. H460 cells with a cell density of more than 90% in 10 cm^2 dishes were digested and resuspended with 1 mL of serum-free medium and counted. 100,000 cells (100 uL) were plated in the upper chamber, and complete medium with 10% FBS was added to the lower chamber of each chamber. Transfection was performed after 12 h, and the groups (3 wells per group) were divided as follows: • blank control group: 20 uL of opti-MEM • negative control group (NC group) and experimental group: • A. 10 uL of opti-MEM and 0.2 uL of iMax were mixed well for 5 min • B. 10 uL of opti-MEM and 0.5 uL of small RNA (final concentration 100 nmol/L) were mixed well • C. solution A and solution B were mixed well and let stand for 15 min, and then was added to each well at a 20 uL system • Note: 100 uL of nuclease-free water was added to 2 nmol of small RNA dry powder for dissolution at a storage concentration of 20 umol/L
After 48 h, the medium in upper and lower chambers was discarded. The cells were fixed with paraformaldehyde at room temperature for 15 min, stained with 0.1% crystal violet at room temperature for 15 min, and rinsed with PBS. The cells in the upper chamber were gently wiped off with cotton swabs, and the chamber was dried. A Leica inverted microscope DMi8 was turned on, the 5× objective lens was selected, the parameters were adjusted and the white balance was performed following the manual. Each chamber was photographed, followed by counting and statistic processing.
1) Matrigel basement membrane matrix was thawed on crushed ice one night before and diluted with serum-free medium to a final concentration of 200-300 ug/mL. […] H460 cells with a cell density of more than 90% in 10 cm^2 dishes were digested and resuspended with 1 mL of serum-free medium and counted. […]

H460 cells [2] = assay: Apoptosis detection (Annexin V / PI); assay type: cell-based, human; conditions: 100 nmol/L, 48 h
Description: H460 cells with a cell density of more than 90% in 10 cm^2 dishes were plated in 12-well plates according to the cell growth rate, and transfected after 12 h, and the groups were divided as follows: • blank control group (4 wells): 200 uL of opti-MEM per well • negative control group (NC group) and experimental group (3 wells each): the system in each well was as follows • A. 100 uL of opti-MEM and 2 uL of iMax were mixed well for 5 min • B. 100 uL of opti-MEM and 5 uL of small RNA (final concentration 100 nmol/L) were mixed well • C. solution A and solution B were mixed well and let stand for 15 min, and then was added to each well at a 200 uL system • Note: 100 uL of nuclease-free water was added to 2 nmol of small RNA dry powder for dissolution at a storage concentration of 20 umol/L
The supernatant and cells were collected after 48 h and washed twice with pre-chilled PBS. The 4 tubes of cells in the blank control group were added respectively with: (1) 200 uL of 1× binding buffer; (2) 200 uL of 1× binding buffer and 5 uL of Annexin V stain; (3) 200 uL of 1× binding buffer and 5 uL of PI stain; (4) 200 uL of 1× binding buffer, 5 uL of Annexin V stain and 5 uL of PI stain. 200 uL of 1× binding buffer, 5 uL of Annexin V stain and 5 uL of PI stain were added to each tube of both the NC group and the experimental group. The mixture was mixed well and filtered through 300 mesh filters. The live cell population and the position of quadrant gate were selected according to the blank control group, and then the apoptosis of the NC group and the experimental group was detected. […]

| Substance | cell invasion (H460 cells [1]) | apoptosis (H460 cells [2]) |
| --- | --- | --- |
| HQi-sRNA-2: small RNA derived from Scutellaria baicalensis, sequence AUGGUUCGAUUCCGGAGAGGG (listed as RNA, chemistry not given here) | inhibits | promotes |
| MDM-sRNA-163: small RNA derived from Maytenus hookeri, sequence UGACUCUAGUCCGACUUUGUGAAAUGACU (listed as RNA, chemistry not given here) | inhibits | promotes |
| MDM-sRNA-39: small RNA derived from Maytenus hookeri, sequence GGGAUUGUAGUUCAAUUGGUCAGAGCACC (listed as RNA, chemistry not given here) | inhibits | promotes |
